According to patent US9272987B2, “Diazeniumdiolate cyclohexyl derivatives” (Merck Sharp & Dohme Corp., priority 2011, dated 2016):

Tested on: Male beagle dogs
Assay: canine telemetry protocol, blood pressure reduction efficacy
Format: in vivo
Details: change from baseline, 3 mg/kg oral gavage; for ΔPP (mmHg) 1-6 h / ΔPP (mmHg) 6-12 h / ΔPP (mmHg) 12-18 h: pulse pressure; for ΔSBP (mmHg) 1-6 h / ΔSBP (mmHg) 6-12 h / ΔSBP (mmHg) 12-18 h: systolic blood pressure
Description: Compounds of the invention were evaluated for blood pressure reduction efficacy using the following canine telemetry protocol described below.
Male beagle dogs (approximately 1-3 years old) with a body weight of between 10 and 16 kg were surgically implanted with DSI radiotelemetry devices (model: TL11M2-D70-PCT). Briefly, under an inhalant anesthesia, isoflurane/oxygen mixture (1-3.5%/to effect), the body of the telemetry device was positioned and secured intra-abdominally. Subsequently, the arterial catheter of the telemetry device was passed subcutaneously to the inguinal area and introduced into the femoral artery and advanced to the level of the descending aorta. The catheter was secured with 2-0 silk ligatures. The muscle and underlying fascia was closed over the catheter using absorbable suture and the skin was closed using non-absorbable suture. The animals were allowed a minimum recovery period of 2 weeks between surgery and the evaluation of test compounds.
Compound evaluation consisted of a 3 day paradigm at a 3 mg/kg dose. On the first day, no compounds were administered during a 24 hour period of baseline data collection. Blood pressure and heart rate data were collected continuously for one minute periods at 10 minute intervals. On the days of compound administration half the animals received test article with the other half receiving the vehicle used for compound formulation. All test materials were administered by oral gavage in a volume of 1 mL/kg. Data are expressed either as raw values (mm Hg or beats per minute) or as the change from baseline (average value for about 12 hours in low activity period prior to dosing). Change is SBP (systolic blood pressure) and PP (pulse pressure) over time is shown below: […]

Compound	ΔPP (mmHg) 1-6 h	ΔPP (mmHg) 6-12 h	ΔPP (mmHg) 12-18 h	ΔSBP (mmHg) 1-6 h	ΔSBP (mmHg) 6-12 h	ΔSBP (mmHg) 12-18 h
O^2-(trans-4-hydroxy-4-phenylcyclohexyl) 1-(N-tert-butyl-N-methylamino)diazen-1-ium-1,2-diolate [Example 19]	−7 mmHg	−9 mmHg	−9 mmHg	−11 mmHg	−12 mmHg	−15 mmHg
CN(/[N+]([O-])=N/OC1CCCCC1)C(C)(C)C [Example 2]	−9 mmHg	−11 mmHg	−12 mmHg	−11 mmHg	−9 mmHg	−9 mmHg
CN(/[N+]([O-])=N/OC1CCC(F)(F)CC1)C(C)(C)C [Example 9, O^2-(4,4-difluorocyclohexyl) 1-(N-tert-butyl-N-methylamino)diazen-1-ium-1,2-diolate]	−7 mmHg	−8 mmHg	−8 mmHg	−8 mmHg	−12 mmHg	−13 mmHg
O^2-(trans-4-phenylcyclohexyl) 1-(N-tert-butyl-N-methylamino)diazen-1-ium-1,2-diolate [Example 33]	−7 mmHg	−12 mmHg	−11 mmHg	−9 mmHg	−15 mmHg	−9 mmHg
